Data reported in BigSolDB 2.1.

c1ccc2c(c1)OP1(=NP3(=NP4(=N1)Oc1ccccc1O4)Oc1ccccc1O3)O2
Conditions	solubility (mole fraction)
in 1,2-dichloroethane, 293.25 K	0.000409
in 1,2-dichloroethane, 298.35 K	0.000585
in 1,2-dichloroethane, 303.15 K	0.000765
in 1,2-dichloroethane, 308.15 K	0.00107
in 1,2-dichloroethane, 313.25 K	0.0015
in 1,2-dichloroethane, 318.55 K	0.00195
in 1,2-dichloroethane, 323.15 K	0.00252
in 1,2-dichloroethane, 328.55 K	0.00324
in 1,2-dichloroethane, 333.15 K	0.00419
in 1,2-dichloroethane, 338.25 K	0.00582
in THF, 291.95 K	0.000921
in THF, 298.25 K	0.00112
in THF, 303.65 K	0.00137
in THF, 307.95 K	0.00159
in THF, 313.25 K	0.00188
in THF, 318.35 K	0.00218
in THF, 323.15 K	0.0025
in THF, 328.25 K	0.00292
in acetone, 294.35 K	0.00025
in acetone, 298.35 K	0.000323
in acetone, 303.45 K	0.000429
in acetone, 308.65 K	0.000588
in acetone, 313.35 K	0.000759
in acetone, 318.15 K	0.000977
in acetone, 323.25 K	0.00126
in acetonitrile, 293.25 K	0.000116
in acetonitrile, 298.15 K	0.000217
in acetonitrile, 303.25 K	0.000289
in acetonitrile, 308.15 K	0.000369
in acetonitrile, 313.55 K	0.000471
in acetonitrile, 318.25 K	0.000586
in acetonitrile, 323.15 K	0.000743
in acetonitrile, 328.35 K	0.000922
in acetonitrile, 333.15 K	0.00115
in chloroform, 298.15 K	0.00214
in chloroform, 303.05 K	0.0027
in chloroform, 308.05 K	0.00334
in chloroform, 313.65 K	0.00427
in chloroform, 318.55 K	0.00519
in chloroform, 323.05 K	0.00628
in chloroform, 328.75 K	0.00771
in dichloromethane, 288.15 K	0.00108
in dichloromethane, 291.55 K	0.00127
in dichloromethane, 294.45 K	0.00145
in dichloromethane, 298.35 K	0.00175
in dichloromethane, 303.45 K	0.00219
in dichloromethane, 308.65 K	0.00276
in ethanol, 293.95 K	9.52e-05
in ethanol, 298.05 K	0.000117
in ethanol, 303.25 K	0.000153
in ethanol, 308.35 K	0.000194
in ethanol, 313.35 K	0.000234
in ethanol, 318.15 K	0.000308
in ethanol, 322.95 K	0.00038
in ethanol, 328.15 K	0.000451
in ethanol, 332.45 K	0.000562
in ethyl acetate, 298.15 K	0.000419
in ethyl acetate, 303.35 K	0.000563
in ethyl acetate, 308.25 K	0.000675
in ethyl acetate, 313.45 K	0.000856
in ethyl acetate, 318.25 K	0.00107
in ethyl acetate, 323.15 K	0.00133
in ethyl acetate, 328.15 K	0.00166
in ethyl acetate, 332.45 K	0.00188
in toluene, 293.15 K	0.000667
in toluene, 298.25 K	0.000868
in toluene, 303.15 K	0.00108
in toluene, 308.35 K	0.00137
in toluene, 313.55 K	0.0017
in toluene, 318.25 K	0.00205
in toluene, 323.15 K	0.00249
in toluene, 328.35 K	0.00305
in toluene, 333.15 K	0.00367
in toluene, 338.25 K	0.00442
